Entries after “also recorded” stand apart in the source; their conditions may differ.
Assays:
[1] = test system: rodents; conditions: cited from earlier work
[2] = test system: acetaldehyde toxicity in rodents; conditions: cited from earlier work
[3] = test system: aldehyde dehydrogenase; conditions: humans; cited from earlier work
[4] = chronic dosing for two years; cited from earlier work
[5] = test system: humans; conditions: cited from earlier work
[6] = test system: alcoholic hangover symptoms; assay: Open-label and dose-finding studies in humans drinking alcoholic beverages
[7] = after oral administration; cited from earlier work
[8] = NAC compared with ALA; cited from earlier work

Row | Compound | LD50 [1] [mg/kg] | Protective effect against acetaldehyde toxicity [2] | Effect on aldehyde dehydrogenase activity [3] | No-observed-effect level [4] [mg/kg/day] | Tolerability ([5]; diabetics given 600 mg/day for four years) | Doses required to decrease alcohol hangover symptoms as monotherapy, compared with the combination [6] | Dose that must be ingested for any noticeable reduction of alcohol hangover symptoms ([6]; monotherapy, ingested prior to imbibing alcoholic beverages) | Oral absorption [7] | LD50 (in words) [1] | Relative solubility (water versus fat) [8] | Outcome of high exposure ([5]; human child, 8480 mg/kg over 72 hours)
1 | O=C(O)CCCC[C@@H]1CCSS1 [ALA, (R)-(+)-lipoic acid] | > 2000 | same effect | increasing aldehyde dehydrogenase activity | 60 | well-tolerated | much greater doses | at least 200 mg | – | – | – | –
2 | N[C@@H](CS)C(=O)O [L-cysteine] | – | – | – | – | – | – | – | not well-absorbed; also recorded: poorly absorbed | – | – | –
3 | CC(=O)N[C@@H](CS)C(=O)O [NAC, N-acetyl-L-cysteine] | – | robust protective effects | – | – | – | much greater doses | – | – | very high | more water soluble | survived with minor liver dysfunction

Source: patent US20150202181A1, “Method of and compounds for the reduction of alcoholic hangover” (priority 2014, published 2015)
